According to patent US12195482B1 (Arcus Biosciences, Inc., priority 2022, dated 2025):
pIC50: −log10 of the molar value.

Molecular target: T1, Axl (Homo sapiens, UniProt P30530)
T1 sequence (P30530 26-894): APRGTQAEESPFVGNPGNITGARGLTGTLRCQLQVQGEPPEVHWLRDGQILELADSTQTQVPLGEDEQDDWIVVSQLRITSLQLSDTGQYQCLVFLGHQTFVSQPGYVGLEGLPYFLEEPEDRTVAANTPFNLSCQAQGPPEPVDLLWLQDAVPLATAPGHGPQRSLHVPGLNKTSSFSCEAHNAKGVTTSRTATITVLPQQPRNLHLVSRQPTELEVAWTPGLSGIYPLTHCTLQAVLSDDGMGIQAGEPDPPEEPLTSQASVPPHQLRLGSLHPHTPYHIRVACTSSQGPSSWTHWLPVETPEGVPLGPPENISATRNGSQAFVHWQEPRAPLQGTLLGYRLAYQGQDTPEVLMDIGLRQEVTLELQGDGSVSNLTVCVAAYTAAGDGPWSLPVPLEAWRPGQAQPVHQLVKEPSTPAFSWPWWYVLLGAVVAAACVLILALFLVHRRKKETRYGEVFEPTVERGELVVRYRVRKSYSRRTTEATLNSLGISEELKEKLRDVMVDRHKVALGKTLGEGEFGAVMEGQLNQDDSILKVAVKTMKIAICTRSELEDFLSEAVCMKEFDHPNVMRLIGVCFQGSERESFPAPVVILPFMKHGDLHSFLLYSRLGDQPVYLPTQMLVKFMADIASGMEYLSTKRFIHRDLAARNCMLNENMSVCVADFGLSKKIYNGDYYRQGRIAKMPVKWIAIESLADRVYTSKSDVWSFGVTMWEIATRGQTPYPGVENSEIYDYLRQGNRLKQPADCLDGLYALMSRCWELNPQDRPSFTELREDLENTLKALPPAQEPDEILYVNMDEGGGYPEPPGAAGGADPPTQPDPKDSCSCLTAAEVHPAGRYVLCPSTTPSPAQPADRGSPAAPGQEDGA
Assay: Axl NanoBRET intracellular kinase assay (intracellular binding, K-5 tracer displacement)
Design: host or cells: HEK-293
Conditions: HEK-293 cells transfected with Axl-NanoLuc, 0.35 μM K-5 NanoBRET tracer; read-out: Cell Binding AXL
Protocol: Measuring Intracellular Binding of Axl Inhibitors
Axl NanoBRET™ intracellular kinase assay (Promega, N2540) was performed according to manufacturer's recommendation. In brief, HEK-293 cells are transiently transfected with Ax1-NanoLuc fusion vector (Promega, NV1071), utilizing Fugene HD transfection reagent (Promega, E2311) a day before experiment following manufacturer's recommendation.
The day of the assay, the cells were collected and resuspended in Opti-MEM media (ThermoFisher, 31985070) at 2e5 cells/mL concentration. Testing compounds were serial diluted and dispensed into a white 384 well polystyrene plate at 200 nL in 100% DMSO. 40 μL of resuspended cells is then added per well for a final condition of 8K cells/well with 0.5% DMSO. After one-hour compound pre-incubation at 37° C. and 5% CO2, cells were further incubated with 0.35 μM K-5 NanoBRET tracer for two-hours at 37° C. and 5% CO2. […] of 3× substrate plus Inhibitor solution was prepared according to kits manual and added to the cells followed by a 30 second pulse centrifugation spin. The plate was then immediately read utilizing an Envision (Perkin Elmer) plate reader. The BRET signal is measured by taking the ratio of the emissions reading at 610 nm and 450 nm. Compound binding is based on the decrease BRET signal caused by the displacement of the K-5 tracer. […] ICso value of compounds was determined by 4-parameter non-linear regression fitting of percent activity in GraphPad Prism software.

A pIC50 greater than 7.00 was found for c1ccc(-c2ccc(-c3c[nH]c4ncc(-c5ccc6c(c5)CC[C@@H](N5C7COCC5C7)CC6)cc34)cc2)nc1 [Example 155, 6-[(7S)-2-{3-[4-(Pyridin-2-yl)phenyl]-1H-pyrrolo[2,3-b]pyridin-5-yl}-6,7,8,9-tetrahydro-5H-benzo[7]annulen-7-yl]-3-oxa-6-azabicyclo[3.1.1]heptane] in this work.
A pIC50 greater than 7.00 was found for Cc1cccnc1-c1ccc(-c2c[nH]c3ncc(-c4ccc5c(c4)CC[C@@](C)(N4CCC[C@H]4C)CC5)cc23)cc1 [Example 172, 3-Methyl-2-(4-{5-[(7S)-7-methyl-7-[(2R)-2-methylpyrrolidin-1-yl]-6,7,8,9-tetrahydro-5H-benzo[7]annulen-2-yl]-1H-pyrrolo[2,3-b]pyridin-3-yl}phenyl)pyridine] in this work.
A pIC50 greater than 7.00 was found for CN(C)C(=O)c1ccccc1-c1ccc(-c2n[nH]c3ncc(-c4ccc5c(c4)CC[C@@H](N4C6COCC4C6)CC5)cc23)cc1 [Example 12, N,N-Dimethyl-4′-{5-[(7S)-7-{3-oxa-6-azabicyclo[3.1.1]heptan-6-yl}-6,7,8,9-tetrahydro-5H-benzo[7]annulen-2-yl]-2H-pyrazolo[3,4-b]pyridin-3-yl}-[1,1′-biphenyl]-2-carboxamide] in this work.
A pIC50 greater than 7.00 was found for Cc1ccnnc1-c1ccc(-c2n[nH]c3ncc(-c4ccc5c(c4)CC[C@@H](N4C6COCC4C6)CC5)cc23)cc1 [Example 176, 6-[(7S)-2-{3-[4-(4-Methylpyridazin-3-yl)phenyl]-1H-pyrazolo[3,4-b]pyridin-5-yl}-6,7,8,9-tetrahydro-5H-benzo[7]annulen-7-yl]-3-oxa-6-azabicyclo[3.1.1]heptane] in this work.
A pIC50 greater than 7.00 was found for c1ccc(-c2ccc(-c3n[nH]c4ncc(-c5ccc6c(c5)CC[C@@H](N5C7COCC5C7)CC6)cc34)cc2)nc1 [Example 154, 6-[(7S)-2-{3-[4-(Pyridin-2-yl)phenyl]-2H-pyrazolo[3,4-b]pyridin-5-yl}-6,7,8,9-tetrahydro-5H-benzo[7]annulen-7-yl]-3-oxa-6-azabicyclo[3.1.1]heptane] in this work.
A pIC50 of 6.00 to 7.00 was found for Cc1cc(-c2n[nH]c3ncc(-c4ccc5c(c4)CC[C@@H](N4C6COCC4C6)CC5)cc23)ccc1-c1ccccn1 [Example 159, 6-[(7S)-2-{3-[3-Methyl-4-(pyridin-2-yl)phenyl]-2H-pyrazolo[3,4-b]pyridin-5-yl}-6,7,8,9-tetrahydro-5H-benzo[7]annulen-7-yl]-3-oxa-6-azabicyclo[3.1.1]heptane] in this work.
A pIC50 greater than 7.00 was found for Cn1nccc1-c1ccc(-c2n[nH]c3ncc(-c4ccc5c(c4)CC[C@@H](N4C6COCC4C6)CC5)cc23)cc1 [Example 109, 6-[(7S)-2-{3-[4-(1-Methyl-1H-pyrazol-5-yl)phenyl]-1H-pyrazolo[3,4-b]pyridin-5-yl}-6,7,8,9-tetrahydro-5H-benzo[7]annulen-7-yl]-3-oxa-6-azabicyclo[3.1.1]heptane] in this work.
A pIC50 greater than 7.00 was found for Cn1nncc1-c1ccc(-c2n[nH]c3ncc(-c4ccc5c(c4)CC[C@@H](N4C6COCC4C6)CC5)cc23)cc1 [Example 13, 6-[(7S)-2-{3-[4-(1-Methyl-1H-1,2,3-triazol-5-yl)phenyl]-1H-pyrazolo[3,4-b]pyridin-5-yl}-6,7,8,9-tetrahydro-5H-benzo[7]annulen-7-yl]-3-oxa-6-azabicyclo[3.1.1]heptane] in this work.
A pIC50 greater than 7.00 was found for Cn1ccnc1-c1ccc(-c2n[nH]c3ncc(-c4ccc5c(c4)CC[C@@H](N4C6COCC4C6)CC5)cc23)cc1 [Example 111, 6-[(7S)-2-{3-[4-(1-Methyl-1H-imidazol-2-yl)phenyl]-1H-pyrazolo[3,4-b]pyridin-5-yl}-6,7,8,9-tetrahydro-5H-benzo[7]annulen-7-yl]-3-oxa-6-azabicyclo[3.1.1]heptane] in this work.
A pIC50 greater than 7.00 was found for O=C(c1cccnc1-c1ccc(-c2c[nH]c3ncc(-c4ccc5c(c4)CC[C@@H](N4C6COCC4C6)CC5)cc23)cc1)N1CCCC1 [Example 171, 6-[(7S)-2-(3-{4-[3-(Pyrrolidine-1-carbonyl)pyridin-2-yl]phenyl}-1H-pyrrolo[2,3-b]pyridin-5-yl)-6,7,8,9-tetrahydro-5H-benzo[7]annulen-7-yl]-3-oxa-6-azabicyclo[3.1.1]heptane] in this work.
